US20040084383A1, “Method to inhibit growth of microorganisms in aqueous systems and on substrates using a persulfate and a bromide” (BUCKMAN LABORATORIES INTERNATIONAL, INC., priority 2002, published 2004)

Test system: Pseudomonas aeruginosa
Assay: Antimicrobial efficacy in inoculated pulp slurry (24 hr incubation, plated in nutrient agar, cfu/ml counted)
Type: cell-based
Experimental: A concentrated solution of active biocidal composition was prepared by mixing 44% (w/v) of aqueous ammonium persulfate with 40% (w/v) aqueous sodium bromide in equal volume. The final mixture contains 22% ammonium persulfate and 20% NaBr at pH 2.2. The molar ratio of the components was 1:2 for (NH4)2S2O8:NaBr. Four hours after mixing, the concentrated solution was diluted with water to contain 5% ammonium persulfate. This diluted solution (5%) was then added to 50 ml pulp slurry to give a biocidal concentration of 10 ppm (as ammonium persulfate) in pulp slurry. The pulp slurry was then inoculated with 3×10^6 cells/ml of Pseudomonas aeruginosa, incubated at room temperature for 24 hr, plated in nutrient agar. The colony forming units per milliliter (cfu/ml) was counted and compared with each individual component acting alone.
The pulp slurry contains white bleached dry pulp at 5 g/L; cationic starch at 10 bl/ton dry pulp; CaCO3 at 300 bl/ton dry pulp; ASA size at 3-4 lb/ton dry pulp; retention aids at 0.5-1.0 bl/ton dry pulp; defoamer at 250 g/ton dry pulp. The pulp slurry has a consistency of about 0.5 to 0.7%. The final pH of the pulp substrate after autoclave is about 8.0. […] Neither component acting alone provides significant antimicrobial efficacy.
The antimicrobial efficacy of the mixture containing 22% (w/v) aqueous ammonium persulfate and 20% (w/v) aqueous NaBr was tested at different times after mixing, aging times. The mixture preparation, at pH 2.2, and the test system are the same as that described in Example 1. At each time, a portion of the mixture was taken and diluted to 5% (as ammonium persulfate). The diluted solution was then added to pulp slurry to give a final concentration of 5, 10, 20, and 40 ppm (as ammonium persulfate) in pulp slurry. […] At only 5 ppm level, it achieved 2.5 logs reduction, which represents greater than 99% kill. […] It requires about 4 hr to provide significant activity. At about 8 hr after mixing, the mixed solution reached the maximum activity. The biocidal efficacy of the mixture was maintained or stabilized for at least 7 days.
Three mixtures were generated. Mixture #1 was prepared by mixing 22% (NH4)2S2O8 with 20% NaBr in equal volume. The final concentrations in mixture #1 were 11% (NH4)2S2O8 and 10% NaBr. Mixture #2 was made by mixing 33% (NH4)2S2O8 with 30% NaBr in equal volume. The final concentrations in Mixture #2 were 16.5% (NH4)2S2O8 and 15% NaBr. Mixture #3 was prepared by mixing 44% (NH4)2S2O8 with 40% NaBr in equal volume. In the final solution, Mixture #3 contains 22% (NH4)2S2O8 and 20% NaBr. All three mixtures, having a pH 2.2, were tested at a dosage of 20 ppm, and at 1, 2, 4, and 8 hr after mixing for their antimicrobial activity in the pulp slurry described in Example 1. […]

[1] = 100 ppm as pure compound in pulp slurry
[2] = 1000 ppm as pure compound in pulp slurry

| Compound | CFU/ml [1] | Log Reduction [1] | CFU/ml [2] | Log Reduction [2] |
| --- | --- | --- | --- | --- |
| N.N.O=S(=O)(O)OOS(=O)(=O)O [(NH4)2S2O8, ammonium persulfate] | 4.5 × 10^5 CFU/ml | 0.97 | – | – |
| [Br-].[Na+] [NaBr, sodium bromide] | – | – | 4.2 × 10^6 CFU/ml | 0.00 |
